Reference: US20260200990A1, “MODIFIED LONG PEPTIDES SUITABLE FOR USE IN IMMUNISATION” (ISABELLA PHARMA B.V., priority 2022, published 2026)
Ends that are not written are not given here.

System: T cells cultured from PBMC from healthy donors
Test: T cell induction by PRAME-based SLPs, IFNy ELISpot (test 1 and test 2)
Design: species or system human; key to ELISPOT IFNy / ELISPOT IFNy, summary of the results in the table: − (negative); + (positive); When at least one donor had a positive response, this is denoted as POS
Conditions: for ELISPOT IFNy, summary of the results in the table: Table 5, all donors; for IFNy response in in vitro human T cell cultures: summary over the donors tested
Description: The capacity of human-PRAME-based SLPs to activate T cells was studied. The biological activity of the synthesized and purified SLPs was tested using PBMC from healthy donors. Monocytes were isolated using anti-CD14 beads by magnet activated cell sorting (MACS) following the protocol of the supplier (Miltenyi Biotec). In short, PBMCs were isolated by centrifugation over a Ficoll gradient and cryopreserved. To generate dendritic cells (DCs), approximately […] thawed PBMC were used for the isolation of CD14 positive cells. The cells were cultured for three days at 37° C. in 2 ml/well of IMDM 4% human serum (HS) containing 800 U/ml GM-CSF and 500 U/ml IL-4 (Peprotech). After 3 days 1 mL/well of IMDM 4% HS with GM-CSF (2400 U/mL) and IL-4 (1500 U/mL) was added to the monocytes-derived DCs and these adhered cells were cultured for an additional 3 days. On day 6, long peptides distributed over 2 pools were added to monocyte-derived DCs of naive donors at a 13 μM concentration and incubated overnight at 37° C. The next day (day 7) peptide-loaded DCs were harvested, irradiated (1000 rad), washed and mixed in a 1:10 ratio with autologous PBMC in IMDM 8% human serum in the presence of IL-7 (10 ng/ml) and IL-12p70 (100 μg/mL).
On day 10 new DCs were generated and loaded, after 6 days, with SLPs on day 16 as described above. The next day, these peptide-loaded DCs were harvested, irradiated (1000 rad) and washed. Also the cultured T cells were harvested. Both were counted and mixed in a 1:10 ratio (DC:T) in IMDM 8% human serum in the presence of IL-7 (10 ng/ml) and IL-12p70 (100 μg/mL) for the first restimulation. On the same day, new DCs were generated as described above that were loaded with SLPs on day 23 as described above. The next day, peptide-loaded DCs were harvested, irradiated (1000 rad) and washed. Also the cultured and restimulated T cells were harvested. Both were counted and mixed in a 1:10 ratio (DC:T) in IMDM 8% human serum in the presence of IL-7 (10 ng/ml) and IL-12p70 (100 μg/mL) for the second restimulation.
On this day 24, also test 1 was started in which DCs loaded with individual SLPs were cultured with harvested T cells from restimulation 1. For test 1, DCs and harvested T cells were cultured in a 1:10 ratio for 2 days after which cells were transferred to a coated ELISpot plate (see description below). On day 24, new DCs were generated as described above that were loaded with SLPs on day 30 as described above. The next day, peptide-loaded DCs were harvested, irradiated (1000 rad) and washed. Also the cultured twice restimulated T cells were harvested. Both were counted and mixed in a 1:10 ratio (DC:T) in IMDM 8% human serum in the presence of IL-2 (30 IU/mL) and IL-12p70 (100 μg/mL) for the third restimulation.
On day 31, also test 2 was started in which DCs loaded with individual SLPs were cultured with harvested T cells from restimulation 2. For test 2, DCs and harvested T cells were cultured in a 1:10 ratio for 2 days after which cells were transferred to a coated ELISpot plate (see description below).
The T cell cultures were restimulated three times in 1-week cycles using peptide loaded autologous moDCs. After the 2nd and 3rd restimulation, reactivity towards single SLPs was tested (test 1 and test 2, respectively). Reactivity was determined by measuring IFNy production using ELISpot.
For ELISpot analysis, multiscreen plates were coated with an IFNy coating antibody overnight at 4° C. The next day, the plate was washed 4× with PBS and blocking was done using IMDM 8% HS at 37° C. for at least one hour. Each sample was tested in triplicate. As a positive control, phytoheamagglutinin (PHA, 1 μg/mL) was added to cells that were not stimulated with SLP after thawing. The plate was cultured overnight at 37° C. Thereafter, cells were discarded and the plate was washed using PBS/0.05% Tween-20. The IFNy detection antibody was diluted and added to each well and incubated for 2 hours at room temperature. […]

[1] = donor BC298, Test 1, 2 peptide pools
[2] = donor BC298, Test 2, 2 peptide pools
[3] = donor BC305, Test 1, 2 peptide pools
[4] = donor BC305, Test 2, 2 peptide pools
[5] = donor BC306, Test 1, 2 peptide pools
[6] = donor BC306, Test 2, 2 peptide pools
[7] = donor BC312, Test 1, 2 peptide pools
[8] = donor BC312, Test 2, 2 peptide pools
[9] = donor BC321, Test 1, 2 peptide pools
[10] = donor BC321, Test 2, 2 peptide pools
[11] = donor BC228, Test 1, pool of 3 peptides
[12] = donor BC228, Test 2, pool of 3 peptides
[13] = donor BC303, Test 1, pool of 3 peptides
[14] = donor BC303, Test 2, pool of 3 peptides
[15] = donor BC314, Test 1, pool of 3 peptides
[16] = donor BC314, Test 2, pool of 3 peptides
[17] = donor BC320, Test 1, pool of 3 peptides
[18] = donor BC320, Test 2, pool of 3 peptides
[19] = donor BC322, Test 1, pool of 3 peptides
[20] = donor BC322, Test 2, pool of 3 peptides
[21] = donor BC323, Test 1, pool of 3 peptides
[22] = donor BC323, Test 2, pool of 3 peptides
[23] = donor BC290, Test 1, 2 peptide pools
[24] = donor BC290, Test 2, 2 peptide pools
[25] = donor BC315, Test 1, 2 peptide pools
[26] = donor BC315, Test 2, 2 peptide pools

Row | Sequence | ELISPOT IFNy, summary of the results in the table | ELISPOT IFNy [1] | ELISPOT IFNy [2] | ELISPOT IFNy [3] | ELISPOT IFNy [4] | ELISPOT IFNy [5] | ELISPOT IFNy [6] | ELISPOT IFNy [7] | ELISPOT IFNy [8] | ELISPOT IFNy [9] | ELISPOT IFNy [10] | ELISPOT IFNy [11] | ELISPOT IFNy [12] | ELISPOT IFNy [13] | ELISPOT IFNy [14] | ELISPOT IFNy [15] | ELISPOT IFNy [23] | ELISPOT IFNy [24] | ELISPOT IFNy [25] | ELISPOT IFNy [26] | also measured
1 | ALYVDSLFFLRGRLDQLLRHVMNPLETLSITNCRL (ALYVDSLFFLRGRLDQLLRHVMNPLETLSITNC(cysteinyl)RL; listed as Homo sapiens) [SEQ ID NO: 40, PRAME-based SLP, cysteinylated form tested] | POS | − | − | − | − | − | − | − | − | + | + |  |  |  |  |  |  |  |  |  | 
2 | KEGACDELFSYLIEKVKRKKNVLRL (KEGAC(cysteinyl)DELFSYLIEKVKRKKNVLRL; listed as Homo sapiens) [SEQ ID NO: 39, PRAME-based SLP, cysteinylated form tested] |  | − | − | − | − | − | − | − | − | − | − | − | − | − | − | + |  |  |  |  | ELISPOT IFNy [16]: +; ELISPOT IFNy [17]: −; ELISPOT IFNy [18]: −; ELISPOT IFNy [19]: −; ELISPOT IFNy [20]: −; ELISPOT IFNy [21]: −; ELISPOT IFNy [22]: −; IFNy response in in vitro human T cell cultures: positive IFNy response
3 | LETFKAVLDGLDVLLAQEVRPRRWKLQVLDLRK (listed as Homo sapiens) [SEQ ID NO: 45, PRAME-based SLP of WO2008118017, reference compound] |  | − | − | − | − | − | − | − | − | − | − | − | − | − | − | − |  |  |  |  | ELISPOT IFNy [16]: −; ELISPOT IFNy [17]: −; ELISPOT IFNy [18]: −; ELISPOT IFNy [19]: −; ELISPOT IFNy [20]: −; ELISPOT IFNy [21]: −; ELISPOT IFNy [22]: −; IFNy response in in vitro human T cell cultures: did not show convincing responses
4 | LKAMVQAWPFTCLPLGVLMKGQHLHLETFKAVL (LKAMVQAWPFTC(cysteinyl)LPLGVLMKGQHLHLETFKAVL; listed as Homo sapiens) [SEQ ID NO: 38, PRAME-based SLP, cysteinylated form tested] | POS | + | + | − | − | − | − | − | − | + | − |  |  |  |  |  | − | − | − | − | 
5 | LLPRELFPPLFMAAFDGRHSQTLKAMVQAWPF (listed as Homo sapiens) [SEQ ID NO: 43, PRAME-based SLP] |  | − | − | − | − | − | − | − | − | + | − |  |  |  |  |  |  |  |  |  | 
6 | LPSLSHCSQLTTLSFYGNSISISALQSLLQHLIGL (LPSLSHC(cysteinyl)SQLTTLSFYGNSISISALQSLLQHLIGL; listed as Homo sapiens) [SEQ ID NO: 44, PRAME-based SLP, cysteinylated form tested] |  | − | + | − | − | − | − | − | − | + | − |  |  |  |  |  |  |  |  |  | 
7 | PTLAKFSPYLGQMINLRRLLLSHIHASSYISPE (listed as Homo sapiens) [SEQ ID NO: 37, PRAME-based SLP] |  | − | − | + | − | − | − | − | − | − | − |  |  |  |  |  | + | + | − | − | 
8 | VLSLSGVMLTDVSPEPLQALLERASATLQDLVFDE (listed as Homo sapiens) [SEQ ID NO: 50, PRAME-based SLP of WO2008118017, reference compound] |  | − | − | − | − | − | − | − | − | − | − | − | − | − | − | − | − | − | − | − | ELISPOT IFNy [16]: −; ELISPOT IFNy [17]: −; ELISPOT IFNy [18]: −; ELISPOT IFNy [19]: −; ELISPOT IFNy [20]: −; ELISPOT IFNy [21]: −; ELISPOT IFNy [22]: −; IFNy response in in vitro human T cell cultures: did not show convincing responses
9 | VLYPVPLESYEDIHGTLHLERLAYLHARLREL (listed as Homo sapiens) [SEQ ID NO: 41, PRAME-based SLP] | POS | − | − | − | − | − | − | − | − | − | − |  |  |  |  |  | − | − | + | + | 
